Test results taken from ChEMBL document CHEMBL1201862, “PubChem BioAssay data set” (2004).
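Briefly, cells in 96-well plates were exposed to five compound concentrations for 48 h, and endpoints were estimated by linear interpolation. GI50 is the concentration that inhibits growth by half.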 Calls of active or inactive are those of the source. Rule as the data show it: active = GI50 up to about 1.1 µM and inactive = higher.

How the values were obtained:
Experiment in all cases: growth of human tumour cells (NCI), 48 h
NCI-H522 = tested on: NCI-H522
Malme-3M = tested on: Malme-3M
UACC-257 = tested on: UACC-257
OVCAR-5 = tested on: OVCAR-5
UO-31 = tested on: UO-31
OVCAR-4 = tested on: OVCAR-4
A549 = tested on: A549
HCT-15 = tested on: HCT-15
SK-MEL-5 = tested on: SK-MEL-5
A498 = tested on: A498
HL-60 = tested on: HL-60
RXF 393 = tested on: RXF 393
DU-145 = tested on: DU-145
K562 = tested on: K562
HOP-62 = tested on: HOP-62
HOP-92 = tested on: HOP-92
SF-268 = tested on: SF-268
HT-29 = tested on: HT-29
DLD-1 = tested on: DLD-1
KM12 = tested on: KM12
BT-549 = tested on: BT-549
SF-539 = tested on: SF-539
NCI-H460 = tested on: NCI-H460
ACHN = tested on: ACHN
HOP-18 = tested on: HOP-18
MDA-MB-231 = tested on: MDA-MB-231
U-251 = tested on: U-251
LOX IMVI = tested on: LOX IMVI
COLO 205 = tested on: COLO 205
LXFL 529 = tested on: LXFL 529
IGROV-1 = tested on: IGROV-1
SK-MEL-2 = tested on: SK-MEL-2
SNB-19 = tested on: SNB-19
SR = tested on: SR
CAKI-1 = tested on: CAKI-1
RPMI-8226 = tested on: RPMI-8226
SK-OV-3 = tested on: SK-OV-3
SF-295 = tested on: SF-295
T47D = tested on: T47D
MCF7 = tested on: MCF7
CCRF-CEM = tested on: CCRF-CEM
KM-20L2 = tested on: KM-20L2
NCI-H226 = tested on: NCI-H226
MDA-N = tested on: MDA-N
OVCAR-8 = tested on: OVCAR-8
786-0 = tested on: 786-0
MDA-MB-435 = tested on: MDA-MB-435
NCI-H23 = tested on: NCI-H23
RXF 631 = tested on: RXF 631
SNB-78 = tested on: SNB-78
PC-3 = tested on: PC-3
M19-MEL = tested on: M19-MEL
UACC-62 = tested on: UACC-62
XF498 = tested on: XF498
NCI/ADR-RES = tested on: NCI/ADR-RES
DMS-114 = tested on: DMS-114
SNB-75 = tested on: SNB-75
OVCAR-3 = tested on: OVCAR-3
Hs-578T = tested on: Hs-578T
HCT-116 = tested on: HCT-116
SW-620 = tested on: SW-620
MOLT-4 = tested on: MOLT-4
DMS-273 = tested on: DMS-273
EKVX = tested on: EKVX
HCC 2998 = tested on: HCC 2998
M14 = tested on: M14
TK-10 = tested on: TK-10
SK-MEL-28 = tested on: SK-MEL-28
SN12C = tested on: SN12C

Compound: Cc1c2cc[n+](C)cc2c(C)c2c1sc1ccccc12
- GI50 (NCI-H522): 661 nM (active)
- GI50 (Malme-3M): 542 nM (active)
- GI50 (UACC-257): 1940 nM (inactive)
- GI50 (OVCAR-5): 3860 nM (inactive)
- GI50 (UO-31): 8690 nM (inactive)
- GI50 (OVCAR-4): 3400 nM (inactive)
- GI50 (A549): 159 nM (active)
- GI50 (HCT-15): 18300 nM
- GI50 (SK-MEL-5): 1390 nM (inactive)
- GI50 (A498): 1450 nM (inactive)
- GI50 (HL-60): 3330 nM (inactive)
- GI50 (RXF 393): 1560 nM (inactive)
- GI50 (DU-145): 1480 nM (inactive)
- GI50 (K562): 2260 nM (inactive)
- GI50 (HOP-62): 452 nM (active)
- GI50 (HOP-92): 1300 nM (inactive)
- GI50 (SF-268): 199 nM (active)
- GI50 (HT-29): 3850 nM (inactive)
- GI50 (DLD-1): 3050 nM (inactive)
- GI50 (KM12): 457 nM (active)
- GI50 (BT-549): 294 nM (active)
- GI50 (SF-539): 332 nM (active)
- GI50 (NCI-H460): 350 nM (active)
- GI50 (ACHN): 4700 nM (inactive)
- GI50 (HOP-18): 9140 nM (inactive)
- GI50 (MDA-MB-231): 2390 nM (inactive)
- GI50 (U-251): 114 nM (active)
- GI50 (LOX IMVI): 4060 nM (inactive)
- GI50 (COLO 205): 1070 nM (active)
- GI50 (LXFL 529): 456 nM (active)
- GI50 (IGROV-1): 1120 nM (inactive)
- GI50 (SK-MEL-2): 2900 nM (inactive)
- GI50 (SNB-19): 205 nM (active)
- GI50 (SR): 246 nM (active)
- GI50 (CAKI-1): 3460 nM (inactive)
- GI50 (RPMI-8226): 1220 nM (inactive)
- GI50 (SK-OV-3): 1490 nM (inactive)
- GI50 (SF-295): 143 nM (active)
- GI50 (T47D): 798 nM (active)
- GI50 (MCF7): 1300 nM (inactive)
- GI50 (CCRF-CEM): 776 nM (active)
- GI50 (KM-20L2): 2040 nM (inactive)
- GI50 (NCI-H226): 383 nM (active)
- GI50 (MDA-N): 2770 nM (inactive)
- GI50 (OVCAR-8): 330 nM (active)
- GI50 (786-0): 204 nM (active)
- GI50 (MDA-MB-435): 2050 nM (inactive)
- GI50 (NCI-H23): 528 nM (active)
- GI50 (RXF 631): 194 nM (active)
- GI50 (SNB-78): 855 nM (active)
- GI50 (PC-3): 1480 nM (inactive)
- GI50 (M19-MEL): 1100 nM (active)
- GI50 (UACC-62): 1630 nM (inactive)
- GI50 (XF498): 564 nM (active)
- GI50 (NCI/ADR-RES): 18900 nM (inactive)
- GI50 (DMS-114): 395 nM (active)
- GI50 (SNB-75): 199 nM (active)
- GI50 (OVCAR-3): 1290 nM (inactive)
- GI50 (Hs-578T): 69 nM (active)
- GI50 (HCT-116): 3630 nM (inactive)
- GI50 (SW-620): 553 nM (active)
- GI50 (MOLT-4): 131 nM (active)
- GI50 (DMS-273): 853 nM (active)
- GI50 (EKVX): 3010 nM (inactive)
- GI50 (HCC 2998): 1440 nM (inactive)
- GI50 (M14): 4730 nM (inactive)
- GI50 (TK-10): 13400 nM (inactive)
- GI50 (SK-MEL-28): 2450 nM (inactive)
- GI50 (SN12C): 132 nM (active)

Compound: COc1ccc2nc(-c3ccc(O)cc3)cc(O)c2c1
- GI50 (NCI-H522): 579 nM (active)
- GI50 (Malme-3M): 459 nM (active)
- GI50 (UACC-257): 1870 nM (inactive)
- GI50 (OVCAR-5): > 25900 nM (inactive)
- GI50 (UO-31): 3140 nM (inactive)
- GI50 (OVCAR-4): 5120 nM (inactive)
- GI50 (A549): 3700 nM (inactive)
- GI50 (HCT-15): 1360 nM
- GI50 (SK-MEL-5): 714 nM (active)
- GI50 (A498): 269 nM (active)
- GI50 (HL-60): 649 nM (active)
- GI50 (RXF 393): 137 nM (active)
- GI50 (DU-145): 15700 nM (inactive)
- GI50 (K562): 598 nM (active)
- GI50 (HOP-62): 1420 nM (inactive)
- GI50 (HOP-92): 631 nM (active)
- GI50 (SF-268): 764 nM (active)
- GI50 (HT-29): 2260 nM (inactive)
- GI50 (DLD-1): 1350 nM (inactive)
- GI50 (KM12): 1030 nM (active)
- GI50 (BT-549): 25900 nM (inactive)
- GI50 (SF-539): 826 nM (active)
- GI50 (NCI-H460): 1950 nM (inactive)
- GI50 (ACHN): 3820 nM (inactive)
- GI50 (HOP-18): 4780 nM (inactive)
- GI50 (MDA-MB-231): 22600 nM (inactive)
- GI50 (U-251): 718 nM (active)
- GI50 (LOX IMVI): 1580 nM (inactive)
- GI50 (COLO 205): 1280 nM (inactive)
- GI50 (LXFL 529): 1100 nM (active)
- GI50 (IGROV-1): 3870 nM (inactive)
- GI50 (SK-MEL-2): 679 nM (active)
- GI50 (SNB-19): 3750 nM (inactive)
- GI50 (RPMI-8226): 1650 nM (inactive)
- GI50 (SK-OV-3): 1060 nM (active)
- GI50 (SF-295): 2100 nM (inactive)
- GI50 (T47D): 4730 nM (inactive)
- GI50 (MCF7): 3520 nM (inactive)
- GI50 (CCRF-CEM): 1090 nM (active)
- GI50 (KM-20L2): 1700 nM (inactive)
- GI50 (NCI-H226): 959 nM (active)
- GI50 (MDA-N): 2760 nM (inactive)
- GI50 (OVCAR-8): 2280 nM (inactive)
- GI50 (786-0): 2090 nM (inactive)
- GI50 (NCI-H23): 1160 nM (inactive)
- GI50 (RXF 631): 3630 nM (inactive)
- GI50 (SNB-78): 841 nM (active)
- GI50 (PC-3): 4780 nM (inactive)
- GI50 (M19-MEL): 465 nM (active)
- GI50 (UACC-62): 697 nM (active)
- GI50 (XF498): 556 nM (active)
- GI50 (DMS-114): 474 nM (active)
- GI50 (SNB-75): 434 nM (active)
- GI50 (OVCAR-3): 887 nM (active)
- GI50 (Hs-578T): 4300 nM (inactive)
- GI50 (HCT-116): 977 nM (active)
- GI50 (SW-620): 1070 nM (active)
- GI50 (MOLT-4): 1410 nM (inactive)
- GI50 (DMS-273): 206 nM (active)
- GI50 (EKVX): 7060 nM (inactive)
- GI50 (HCC 2998): 900 nM (active)
- GI50 (M14): 857 nM (active)
- GI50 (TK-10): 8970 nM (inactive)
- GI50 (SK-MEL-28): 1150 nM (inactive)
- GI50 (SN12C): 2780 nM (inactive)
